Experimental data taken from patent US20170165254A1, “TREATING FLAVIVIRUS INFECTIONS WITH AMODIAQUINE AND DERIVATIVES THEREOF” (GEORGETOWN UNIVERSITY, priority 2014, published 2017).
Structures can show the parent of a compound that is named as a salt. Where two headings read alike, the source gives them in different places.

Columns and labels:
[1] = system: BHK-21 cells; assay: Cytotoxicity assay, BHK-21 cells; details: read-out: DENV replicon CC50; Table 2; unit inferred
[2] = system: Vero cells; assay: Cytotoxicity assay, Vero cells; details: read-out: WNV replicon CC50; Table 2; unit inferred
[3] = system: DENV2 replicon; assay: microbe, parasite or virus in culture; assay type: cell-based, Dengue Virus 2 (DENV2); details: for inhibition at 50 µM: DENV2, BHK-21, read-out: % Replicon Inhibition (Means ± SEM) DENV2
[4] = system: WNV replicon; assay: microbe, parasite or virus in culture; assay type: cell-based, West Nile virus (WNV); details: for EC50: read-out: WNV replicon EC50; for inhibition of WNV replicon replication (in words): FIG. 1B; for inhibition at 50 µM: read-out: % Replicon Inhibition (Means ± SEM) WNV
[5] = system: DENV2; assay: Inhibition of DENV2 infectivity in BHK-21 cells, plaque assay of supernatants; assay type: cell-based, Dengue Virus 2 (DENV2); details: for EC90: read-out: EC90 for inhibition of DENV2 infectivity (plaque assay)
Protocol: BHK-21 cells were seeded into 12-well plates (10^5 cells/well) and incubated overnight at 37° C. Cells were infected with DENV2 at a multiplicity of infection (MOI) of 0.01 or 1 as indicated. After infection, cells were washed with PBS and incubated with 1.5 mL of MEM supplemented with 2% FBS, 100 I.U./mL penicillin/100 μg/mL streptomycin (referred to as maintenance medium). AQ, at indicated concentrations, was added and cells were incubated at 37° C. for various time points as indicated. DMSO (1%), as a no-compound control (100% infection), and mock-infected control using medium alone (0% infection) were included. Supernatants were collected from the time point experiments and the virus titers determined by plaque assay.
(§1) BHK-21 cells were seeded at ˜10^5 cells/well (12-well plate) or ˜5×10^4 cells/well (24-well plate) and then incubated at 37° C. until reaching 90% confluence. Cells were infected with the supernatants collected from experiments of AQ treatments. Cells were washed with PBS, and incubated with 1.5 mL of overlay medium (maintenance medium containing 1% methylcellulose). The plates were incubated for 3-4 days at 37° C. under 5% CO2. After plaques became visually apparent by microscopy, cells were fixed and stained with 11.1% formaldehyde, 4.75% isopropanol, and 1% crystal violet for 30 minutes. The number of plaque forming units (PFU) per mL was determined.
BHK-21 cells were seeded as described above. AQ, at indicated concentrations in 1% DMSO, was added to DENV2 (MOI of 0.01 or 1)-infected cells during adsorption and/or post-infection. Supernatants were collected at indicated time points post-infection for plaque assays.

[6] = molecular target: T1, Rluc enzyme (Renilla reniformis, UniProt P27652); assay type: biochemical; details: added to BHK-21/DENV2 replicon cell lysate
T1 sequence (P27652 1-311): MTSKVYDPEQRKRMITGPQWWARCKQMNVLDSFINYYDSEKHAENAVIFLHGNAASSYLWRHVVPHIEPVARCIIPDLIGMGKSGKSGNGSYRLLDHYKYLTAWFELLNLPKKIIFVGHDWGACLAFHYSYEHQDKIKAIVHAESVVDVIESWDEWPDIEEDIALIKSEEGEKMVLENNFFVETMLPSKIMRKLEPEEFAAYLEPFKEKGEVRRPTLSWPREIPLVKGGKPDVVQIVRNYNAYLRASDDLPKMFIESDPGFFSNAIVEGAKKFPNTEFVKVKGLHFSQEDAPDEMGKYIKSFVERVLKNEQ

[7] = system: DENV2; assay: Time-course analysis on DENV2 infectivity (indirect plaque assay); assay type: cell-based, Dengue Virus 2 (DENV2)
Protocol: as §1
BHK-21 cells were grown in 6-well plates (˜2.5×10^5 cells/well) and were infected with DENV2 at a MOI of 0.01 in the maintenance medium. Cells were washed with PBS and incubated with 3 mL of maintenance medium. AQ at indicated concentrations was added and cells were incubated at 37° C. Supernatants were sampled as indicated and stored at −70° C. for plaque assays.

[8] = system: DENV2; assay: Time of addition assay; assay type: cell-based, Dengue Virus 2 (DENV2)
[9] = system: DENV2; assay: Order of addition assay; assay type: cell-based, Dengue Virus 2 (DENV2); details: AQ 5 μM added post-infection; 48 and 72 hours; MOI of 1
[10] = system: DENV2; assay: Direct plaque assay, AQ present only during adsorption (viral entry); assay type: cell-based, Dengue Virus 2 (DENV2)
[11] = system: DENV2; assay: DENV2 intracellular and extracellular RNA levels by qPCR in BHK-21 cells; assay type: cell-based, Dengue Virus 2 (DENV2); details: AQ 5 μM, 72 hours, p<0.001 vs untreated
[12] = 50 μM in 1% DMSO, Vero/WNV replicon cells

In the case of `C=CN(C)Cc1cc(Nc2ccnc3cc(Cl)ccc23)ccc1O` [AQ derivative 6], the CC50 [1] is reported as 16.4 ± 0.46 µM, the CC50 [2] is reported as 18.2 ± 1.05 µM and the “% Replicon Inhibition (Means ± SEM) DENV2” value [3] is reported as 98.5 ± 1.3%. For the same compound, the “inhibition of DENV2 replicon replication (in words)” value [3] was “strong inhibition”, the EC50 ([3]; read-out: DENV replicon EC50) was 12.5 ± 2.19 µM and the “% Replicon Inhibition (Means ± SEM) WNV” value [4, 12] was 99.5 ± 0.1%. The EC50 ([4]; Table 2, unit inferred) was 6.29 ± 0.52 µM and the “inhibition of WNV replicon replication (in words)” value ([4]; Vero/WNV replicon cells) was “strong inhibition”.
chloroquine sulfate was tested, and the “% Replicon Inhibition (Means ± SEM) DENV2” value [3] was 28.1 ± 3.6% and the “% Replicon Inhibition (Means ± SEM) WNV” value [4] was “— (key: —: “-” refers to no inhibition)”.
`C=C[C@H]1C[N@@]2CC[C@H]1C[C@H]2[C@H](O)c1ccnc2ccc(OC)cc12` [quinine, hydrobromide hydrate] was tested, and the inhibition at 50 µM ([3]; Dengue virus) was 2.8 ± 0.25% and the inhibition at 50 µM ([4]; West Nile virus, Vero) was 34.9 ± 6.7%.
`CCN(CC)CCCC(C)Nc1ccnc2cc(Cl)ccc12` (stereo not shown) [chloroquine (CQ), chloroquine] was tested, and the EC90 ([5]; Dengue virus, DENV2, BHK-21, 72 h) was 5.04 ± 0.72 µM, the “inhibition of DENV2 replicon replication (in words)” value [3] was “did not inhibit DENV2 replicon replication” and the inhibition at 50 µM ([3]; Dengue virus) was 54.8 ± 4.5%. The inhibition at 50 µM ([4]; West Nile virus, Vero) was 18.5 ± 2.8%.
In the case of `CC[N+](C)(CC)Cc1cc(Nc2ccnc3cc(Cl)ccc23)ccc1O` [AQ derivative 2], the “% Replicon Inhibition (Means ± SEM) DENV2” value [3] is reported as 69.9 ± 3.4%, the EC50 ([3]; read-out: DENV replicon EC50) is reported as 29.7 ± 2.26 µM and the “% Replicon Inhibition (Means ± SEM) WNV” value [4, 12] is reported as 50.6 ± 4.4%. For the same compound, the EC50 ([4]; Table 2, unit inferred) was 30.2 ± 6.05 µM.
In the case of `C/C=C1\CN2CC[C@H]1C[C@H]2[C@H](O)c1ccnc2ccc(O)cc12` [apoquinine], the “% Replicon Inhibition (Means ± SEM) DENV2” value [3] is reported as “— (key: —: “-” refers to no inhibition)” and the “% Replicon Inhibition (Means ± SEM) WNV” value [4, 12] is reported as 33.7 ± 2.9%.
In the case of `Oc1ccc(Nc2ccnc3cc(Cl)ccc23)cc1` [AQ derivative 8], the CC50 [1] is reported as over 100 µM, the EC90 ([5]; MOI of 1, supernatants at 72 hours, BHK-21 cells) is reported as 31.2 ± 5.15 µM and the CC50 [2] is reported as over 100 µM. The “% Replicon Inhibition (Means ± SEM) DENV2” value [3] was 3.9 ± 0.3%, the “inhibition of DENV2 replicon replication (in words)” value [3] was “failed to inhibit replicon replication” and the EC50 ([3]; read-out: DENV replicon EC50) was over 100 µM. The EC50 ([3]; read-out: EC50 values, BHK-21/DENV2 replicon cells) was about 100 µM, the “% Replicon Inhibition (Means ± SEM) WNV” value [4, 12] was 57.2 ± 5.1% and the EC50 ([4]; Table 2, unit inferred) was over 100 µM.
For `CCN(CC)Cc1cc(Nc2ccnc3cc(Cl)ccc23)ccc1O` [AQ, 4-[(7-chloroquinolin-4-yl)amino]-2(diethylaminomethyl)phenol], the “interference with Rluc enzyme activity” value [6] was “did not interfere”, the CC50 [1] was 80 ± 6.27 µM and the “inhibition of DENV2 infectivity, indirect plaque assay” value ([7]; AQ 5 μM present during and up to 96 hours post-infection) was “significant inhibition”. For the same compound, the plaque formation reduced ([7]; AQ 5 μM, MOI of 0.01, added during adsorption and post-infection) was at least 90%, the “virus titers (PFU/mL) over time course” value ([7]; AQ 1, 5, 10, 25 μM, MOI of 0.01, p<0.05) was “reduced significantly in a dose-dependent manner” and the plaque reduction ([8]; AQ 5 μM added as late as 15 hours post-infection, supernatants at 72 hours, MOI of 1) was at least 90%. The “inhibitory effect when added late” value ([8]; AQ 5 μM added at 21 hours post-infection and later) was “lost its inhibitory effect”, the “inhibition of DENV2 infection when added early” value ([8]; AQ 5 μM added up to 12 hours post-infection, supernatants at 48 hours) was “inhibited DENV2 infection steadily” and the “virus infectivity (PFU/mL of supernatant) by plaque assay” value ([5]; AQ 5 μM, 72 hours, BHK-21 cells) was “significant reduction”. It also gave an EC90 ([5]; Dengue virus, DENV2, BHK-21, 96 h) of 2.71 ± 0.85 µM, an EC50 ([5]; Dengue virus, DENV2, MOI of 1, supernatants at 72 hours, BHK-21 cells, read-out: EC50 for inhibition of extracellular release of DENV2 (plaque assay)) of 1.08 ± 0.09 µM and an EC90 ([5]; Dengue virus, DENV2, MOI of 1, supernatants at 72 hours, BHK-21 cells) of 2.69 ± 0.4 µM. For the same compound, the CC50 [2] was 24.4 ± 2.49 µM, the “reduction of plaque titer from DMSO control” value [9] was at least 90% and the “% Replicon Inhibition (Means ± SEM) DENV2” value [3] was 76.3 ± 1.6%. For the same compound, the inhibition at 50 µM ([3]; Dengue virus) was 76.3 ± 1.6%, the EC50 ([3]; Dengue virus, DENV2, BHK-21, read-out: DENV replicon EC50) was 10.8 ± 1.43 µM and the EC50 ([3]; Dengue virus, DENV2, BHK-21, read-out: EC50 in BHK-21/DENV2 replicon cells) was 7.41 ± 1.09 µM. The “plaque titer versus DMSO control, direct plaque assay” value ([10]; AQ 5 μM only during adsorption, MOI of 0.01) was “not significantly different”, the “virus titer reduced, direct plaque assay” value ([10]; AQ 10 μM during adsorption) was 69.23±1.57% and the “virus titer reduced, direct plaque assay” value ([10]; AQ 25 μM during adsorption) was 82.70±2.48%. For the same compound, the “DENV2 replication, intracellular and extracellular RNA levels (qRT-PCR)” value [11] was “effectively inhibited DENV2 replication”, the inhibition at 50 µM ([4]; West Nile virus, Vero) was 96.3 ± 0.39% and the EC50 ([4]; West Nile virus, Vero) was 14.6 ± 2.21 µM.
In the case of `COc1cc(NC(C)CCCN)c2ncccc2c1` (stereo not shown) [primaquine], the inhibition at 50 µM ([3]; Dengue virus) is reported as under 0% and the inhibition at 50 µM ([4]; West Nile virus, Vero) is reported as under 0%.
In the case of `COc1ccc(Nc2ccnc3cc(Cl)ccc23)cc1CN(CCCl)C(C)CCl` (stereo not shown) [AQ derivative 7], the CC50 [1] is reported as 17.7 ± 1.96 µM, the CC50 [2] is reported as 34.8 ± 1.78 µM and the “% Replicon Inhibition (Means ± SEM) DENV2” value [3] is reported as 93.0 ± 2.6%. The “inhibition of DENV2 replicon replication (in words)” value [3] was “strong inhibition”, the EC50 ([3]; read-out: DENV replicon EC50) was 19 ± 1.73 µM and the “% Replicon Inhibition (Means ± SEM) WNV” value [4, 12] was 97.7 ± 1.1%. The EC50 ([4]; Table 2, unit inferred) was 14.8 ± 1.14 µM and the “inhibition of WNV replicon replication (in words)” value ([4]; Vero/WNV replicon cells) was “strong inhibition”.
For `CCN(CC)Cc1cc(Nc2c(C)cnc3cc(Cl)ccc23)ccc1O` [AQ derivative 1], the “% Replicon Inhibition (Means ± SEM) DENV2” value [3] was 89.9 ± 10.6%, the “inhibition of DENV2 replicon replication (in words)” value [3] was “strong inhibition” and the EC50 ([3]; read-out: DENV replicon EC50) was 21.1 ± 1.22 µM. The “% Replicon Inhibition (Means ± SEM) WNV” value [4, 12] was 97.9 ± 0.5%, the EC50 ([4]; Table 2, unit inferred) was 14.8 ± 0.48 µM and the “inhibition of WNV replicon replication (in words)” value ([4]; Vero/WNV replicon cells) was “strong inhibition”.
With `CCN(CC)Cc1cc(Nc2c(C3CCCC3)c(C)nc3cc(Cl)ccc23)ccc1O` [AQ derivative 4] the “% Replicon Inhibition (Means ± SEM) DENV2” value [3] was 99.99 ± 0.0%, the “inhibition of DENV2 replicon replication (in words)” value [3] was “strong inhibition” and the EC50 ([3]; read-out: DENV replicon EC50) was 15.4 ± 1.31 µM. For the same compound, the “% Replicon Inhibition (Means ± SEM) WNV” value [4, 12] was 99.8 ± 0.01%, the EC50 ([4]; Table 2, unit inferred) was 3.31 ± 0.73 µM and the “inhibition of WNV replicon replication (in words)” value ([4]; Vero/WNV replicon cells) was “strong inhibition”.
For `CC(CCCN(CCCl)CCCl)Nc1ccnc2cc(Cl)ccc12.O=C(O)c1cc2ccccc2c(Cc2c(O)c(C(=O)O)cc3ccccc23)c1O` [chloroquine mustard pamoate], the “% Replicon Inhibition (Means ± SEM) DENV2” value [3] was 47.5 ± 4.9% and the “% Replicon Inhibition (Means ± SEM) WNV” value [4] was 10.35 ± 4.1%.
